Experimental data published in patent US20120009280A1, “METHOD OF REDUCING THE RATE OF DEGRADATION OF A BIOLOGICAL MATERIAL” (Bio-Energy Ingredients Limited, priority 2009, published 2012).

Columns and labels:
[1] = tested on: total micro-organism; assay: Total microbial (plate) count of spent brewer's / wet distiller's grains stored at ambient temperature; type: cell-based; parameters: total microbial count: unit: cfu/gram
Text: Samples of spent brewer's grains were drawn from the discharge line of a brewery in South Africa. The samples, packed in dry ice in a cold box, were transported over a distance of approximately 40 kilometres to a laboratory. At the laboratory, the samples were thoroughly mixed and initially split into a first portion (Portion 1) and a second portion (Portion 2). The second portion was about twice the size of the first. Portion 1 was left untreated. Material produced from Portion 1 and Portion 2 is designated below using the code “AR” (as received).
Portion 2 was placed on a clean, standard, laboratory screen deck with 1.4 mm apertures supported from below. As much water as possible was manually squeezed out with a clean flat plastic disc and the sample was then manually remixed after the squeezing. The squeezed material was then split into a third portion (Portion 3) and a fourth portion (Portion 4) of approximately the same size. Material produced from Portion 3 and Portion 4 is designated below using the code “SO” (squeezed).
Portion 4 was added to a high speed kitchen food-shredder and shredded for about two minutes. The shredded material was then returned to the 1.4 mm aperture screen and squeezed again, as described above, and manually remixed again after the second squeezing to produce a shredded and squeezed portion (Portion 5). Material produced from Portion 5 is designated below using the code “SH” (shredded).
(§1) Samples of Portion 1 (“AR”), Portion 3 (“SO”) and Portion 5 (“SH”) were then delivered to a microbiological testing facility about 15 kilometres from the treatment laboratory. Each was tested for initial total microbial, yeast and mould counts, respectively.
(§2) Separate untreated samples were similarly stored under insect-proof screens at ambient temperature for seven days (as shown in Tables 1 and 2). During the trial period the ambient temperature ranged from 11 to 33 degrees C.
After exposure to the environment for seven days, all of the samples were tested at a South African National Accreditation System (SANAS) approved microbiological testing facility. Each was tested for total micro-organism, yeast and mould counts to determine the affect of the various treatments.
Samples of spent brewer's grains were drawn from the discharge line of a brewery in South Africa.
(§3) At the laboratory, the samples were thoroughly mixed and initially split into a first portion (Portion 1) and a second portion (Portion 2). Portion 1 was left untreated. A sample of Portion 1, was delivered immediately to a microbiological testing facility about 15 kilometres away from the treatment laboratory and was tested for initial total microbial, yeast and mould counts, respectively.
Samples from Portion 2 were subjected to treatment with varying amounts of a powdered, commercially-available calcium oxide containing approximately 94% calcium oxide (CaO) as shown in Table 32. The treatments varied from 2.5 to 10% (w/w) calcium oxide addition. The samples were stored in batches (according to the calcium oxide treatment) under insect-proof screens at ambient temperature for fifty six days. […] During the trial period the ambient temperature ranged from 10 to 30 degrees C. As this period was the southern hemisphere spring/early summer, the humidity as well as ambient temperatures varied widely.
(§4) Samples from each treatment were drawn every seven days. No further calcium oxide treatment or agitation took place after the initial mix. In each case the entire sample was isolated and delivered to the microbiological testing facility.
(§5) In this trial the same source of wet distiller's grains (again with now partial water removal prior to treatment) was treated.
as §5

[2] = tested on: mould; assay: Mould count of spent brewer's / wet distiller's grains stored at ambient temperature; type: cell-based
Method: as §1, §2
The free moisture content on the initial spent brewer's grains was determined to be 78.1% m/m. After exposure to the environment for seven days, all of the samples were tested at a South African National Accreditation System (SANAS) approved microbiological testing facility. Each was tested for total micro-organism, yeast and mould counts to determine the affect of the various treatments. A similar procedure to that described in K. A. Rosentrater et al, Food Bioprocess Technol (2008) was used for the microbiological evaluation.
as §3, with “respectively. No water removal prior to treatment was done in this experiment as was the case in Example 8 wherein a similar wet material was partially dewatered by pressing and the residue treated with 10% (w/w/) calcium oxide.” for “respectively.”
Samples from Portion 2 were subjected to treatment with varying amounts of a powdered, commercially-available calcium oxide containing approximately 94% calcium oxide (CaO) as shown in Table 32. […] The samples were stored in batches (according to the calcium oxide treatment) under insect-proof screens at ambient temperature for fifty six days. Separate untreated samples were similarly stored under insect-proof screens at ambient temperature for a total of 56 days. During the trial period the ambient temperature ranged from 10 to 30 degrees C. As this period was the southern hemisphere spring/early summer, the humidity as well as ambient temperatures varied widely.
The free moisture content on the initial spent brewer's grains was determined to be 79.4% m/m. After exposure to the environment for seven days, all of the samples were tested at a South African National Accreditation System (SANAS) approved microbiological testing facility. Each was tested for total micro-organism, yeast and mould counts to determine the affect of the various treatments. A similar procedure to that described in K. A. Rosentrater et al, Food Bioprocess Technol (2008) was used for the microbiological evaluation.
as §4
The calcium oxide treatment trial described in Example 9 wherein wet distiller's grains were treated with 2.5%, 5% and 10.0% calcium oxide, respectively, versus untreated material was repeated using lower doses of calcium oxide. In this trial the same source of wet distiller's grains (again with now partial water removal prior to treatment) was treated. Also, the same protocol as described in Example 9 was applied, but at lower doses of calcium oxide i.e. 0.5%, 1.0%, 1.5%, 2.0% and 2.5%, respectively, versus untreated material.
In this trial the same source of wet distiller's grains (again with now partial water removal prior to treatment) was treated. Also, the same protocol as described in Example 9 was applied.

[3] = tested on: yeast; assay: Yeast count of spent brewer's / wet distiller's grains stored at ambient temperature; type: cell-based
[4] = pH of suspensions of grain samples in distilled water or PBS; conditions: 1% (w/w) in distilled water
Method: The untreated sample (A) was compared visually against the corresponding quicklime-treated sample (B).
On Day 7, 10 g amounts of each sample were suspended in either 90 ml PBS or 90 ml sterile distilled water and shaken for 10 minutes. The pH of each suspension was then measured and compared.
On Day 9, 10 g of each sample was suspended in 90 ml PBS and shaken for 10 minutes. The pH was measured.

[Ca+2].[O-]CC(O)CO.[O-]CC(O)CO [calcium diglyceroxide granules, calcium diglyceroxide]
total microbial count ([1]; granules 10% (w/w), 2 week time point): below 10 | total microbial count ([1]; granules 10% (w/w), 3 week time point): 540 | total microbial count ([1]; granules 10% (w/w), 4 week time point): 60 | total microbial count ([1]; granules 10% (w/w), 5 week time point): 650 | effective period ([1]; granules 10% (w/w), Example 18): ~7 weeks

Ca(OH2
Total plate count ([1]; 6.6% (w/w) powder, week 1): 420 cfu/gram | Total plate count ([1]; 6.6% (w/w) powder, week 2): 140 cfu/gram | Total plate count ([1]; 6.6% (w/w) powder, week 3): 640 cfu/gram | Total plate count ([1]; 6.6% (w/w) powder, week 4): 170 cfu/gram | Total plate count ([1]; 6.6% (w/w) powder, week 5): 20 cfu/gram | Mould Count ([2]; 6.6% (w/w) powder, week 1): 10 cfu/gram | Mould Count ([2]; 6.6% (w/w) powder, week 2): 10 cfu/gram | Mould Count ([2]; 6.6% (w/w) powder, week 3): 10 cfu/gram | Mould Count ([2]; 6.6% (w/w) powder, week 4): 10 cfu/gram | Mould Count ([2]; 6.6% (w/w) powder, week 5): 10 cfu/gram | Yeast Count ([3]; 6.6% (w/w) powder, week 1): 10 cfu/gram | Yeast Count ([3]; 6.6% (w/w) powder, week 2): 10 cfu/gram | Yeast Count ([3]; 6.6% (w/w) powder, week 3): 10 cfu/gram | Yeast Count ([3]; 6.6% (w/w) powder, week 4): 120 cfu/gram | Yeast Count ([3]; 6.6% (w/w) powder, week 5): 10 cfu/gram | pH ([4]; 6.6% (w/w) powder, week 1): 11.55 | pH ([4]; 6.6% (w/w) powder, week 2): 11.26 | pH ([4]; 6.6% (w/w) powder, week 3): 12.10 | pH ([4]; 6.6% (w/w) powder, week 4): 8.23 | pH ([4]; 6.6% (w/w) powder, week 5): 11.47

[Ca+2].[O-]CC(O)CO.[O-]CC(O)CO [Ca-DGO powder]
Total plate count ([1]; dose 15% (w/w), week 0): 40 cfu/gram | Total plate count ([1]; dose 15% (w/w), week 1): 80 cfu/gram | Total plate count ([1]; dose 15% (w/w), week 3): 100 cfu/gram | Total plate count ([1]; dose 15% (w/w), week 4): 10 cfu/gram | Total plate count ([1]; dose 15% (w/w), week 6): 50 cfu/gram | Total plate count ([1]; dose 15% (w/w), week 7): 40 cfu/gram | Total plate count ([1]; dose 15% (w/w), week 8): 70 cfu/gram | Total plate count ([1]; dose 15% (w/w), week 9): 10 cfu/gram | Mould Count ([2]; dose 15% (w/w), week 0): <10 cfu/gram | Mould Count ([2]; dose 15% (w/w), week 1): <10 cfu/gram | Mould Count ([2]; dose 15% (w/w), week 2): <10 cfu/gram | Mould Count ([2]; dose 15% (w/w), week 3): <10 cfu/gram | Mould Count ([2]; dose 15% (w/w), week 4): <10 cfu/gram | Mould Count ([2]; dose 15% (w/w), week 5): <10 cfu/gram | Mould Count ([2]; dose 15% (w/w), week 6): <10 cfu/gram | Mould Count ([2]; dose 15% (w/w), week 7): <10 cfu/gram | Mould Count ([2]; dose 15% (w/w), week 8): <10 cfu/gram | Mould Count ([2]; dose 15% (w/w), week 9): 350 cfu/gram | Yeast Count ([3]; dose 15% (w/w), week 0): <10 cfu/gram | Yeast Count ([3]; dose 15% (w/w), week 1): <10 cfu/gram | Yeast Count ([3]; dose 15% (w/w), week 2): <10 cfu/gram | Yeast Count ([3]; dose 15% (w/w), week 3): <10 cfu/gram | Yeast Count ([3]; dose 15% (w/w), week 4): <10 cfu/gram | Yeast Count ([3]; dose 15% (w/w), week 5): <10 cfu/gram | Yeast Count ([3]; dose 15% (w/w), week 6): <10 cfu/gram | Yeast Count ([3]; dose 15% (w/w), week 7): <10 cfu/gram | Yeast Count ([3]; dose 15% (w/w), week 8): <10 cfu/gram | Yeast Count ([3]; dose 15% (w/w), week 9): <10 cfu/gram | pH ([4]; dose 15% (w/w), week 0): 11.50 | pH ([4]; dose 15% (w/w), week 1): 11.73 | pH ([4]; dose 15% (w/w), week 2): 7.33 | pH ([4]; dose 15% (w/w), week 3): 7.38 | pH ([4]; dose 15% (w/w), week 4): 8.83 | pH ([4]; dose 15% (w/w), week 6): 9.18 | pH ([4]; dose 15% (w/w), week 8): 9.14 | pH ([4]; dose 15% (w/w), week 9): 9.07

[Ca+2].[O-]CC(O)CO.[O-]CC(O)CO [Ca-DGO powder + granules (1:1)]
Total plate count ([1]; dose 15% (w/w), week 0): 540 cfu/gram | Total plate count ([1]; dose 15% (w/w), week 1): 50 cfu/gram | Total plate count ([1]; dose 15% (w/w), week 2): 710 cfu/gram | Total plate count ([1]; dose 15% (w/w), week 3): 70 cfu/gram | Total plate count ([1]; dose 15% (w/w), week 4): <10 cfu/gram | Total plate count ([1]; dose 15% (w/w), week 6): 150 cfu/gram | Total plate count ([1]; dose 15% (w/w), week 7): 660 cfu/gram | Total plate count ([1]; dose 15% (w/w), week 8): 4200 cfu/gram | Total plate count ([1]; dose 15% (w/w), week 9): 45000 cfu/gram | Mould Count ([2]; dose 15% (w/w), week 1): <10 cfu/gram | Mould Count ([2]; dose 15% (w/w), week 2): <10 cfu/gram | Mould Count ([2]; dose 15% (w/w), week 3): <10 cfu/gram | Mould Count ([2]; dose 15% (w/w), week 4): <10 cfu/gram | Mould Count ([2]; dose 15% (w/w), week 5): <10 cfu/gram | Mould Count ([2]; dose 15% (w/w), week 6): <10 cfu/gram | Mould Count ([2]; dose 15% (w/w), week 7): <10 cfu/gram | Mould Count ([2]; dose 15% (w/w), week 8): <10 cfu/gram | Mould Count ([2]; dose 15% (w/w), week 9): <10 cfu/gram | Yeast Count ([3]; dose 15% (w/w), week 1): <10 cfu/gram | Yeast Count ([3]; dose 15% (w/w), week 2): <10 cfu/gram | Yeast Count ([3]; dose 15% (w/w), week 3): <10 cfu/gram | Yeast Count ([3]; dose 15% (w/w), week 4): <10 cfu/gram | Yeast Count ([3]; dose 15% (w/w), week 5): 20 cfu/gram | Yeast Count ([3]; dose 15% (w/w), week 6): <10 cfu/gram | Yeast Count ([3]; dose 15% (w/w), week 7): <10 cfu/gram | Yeast Count ([3]; dose 15% (w/w), week 8): <10 cfu/gram | Yeast Count ([3]; dose 15% (w/w), week 9): <10 cfu/gram | pH ([4]; dose 15% (w/w), week 1): 11.47 | pH ([4]; dose 15% (w/w), week 2): 7.57 | pH ([4]; dose 15% (w/w), week 3): 7.88 | pH ([4]; dose 15% (w/w), week 4): 9.29 | pH ([4]; dose 15% (w/w), week 5): 6.78 | pH ([4]; dose 15% (w/w), week 6): 9.27 | pH ([4]; dose 15% (w/w), week 7): 7.23 | pH ([4]; dose 15% (w/w), week 8): 9.18 | pH ([4]; dose 15% (w/w), week 9): 8.93
